Measured values as given in patent US6420557B1, “Crystalline therapeutic agent” (Pfizer Inc., priority 2000, dated 2002).

Assays:
[1] = early investigations of the crystals (hygroscopicity, stability, formulation properties); assay type: physicochemical; conditions: crystals having the XRD pattern of Table 1
cGMP PDE5 = cGMP PDE5 (Homo sapiens, UniProt O76074); conditions: statement in words, as detailed in WO 01/27113; cited from earlier work

formulation properties [1]: good formulation properties | hygroscopicity [1]: non-hygroscopic | stability [1]: stable
Compound: CCOc1ncc(S(=O)(=O)N2CCN(CC)CC2)cc1-c1nc2c(CC)n(CCOC)nc2c(=O)[nH]1 [Example 1, 1-{6-ethoxy-5-[3-ethyl-6,7-dihydro-2-(2-methoxyethyl)-7-oxo-2H-pyrazolo[4,3-d]pyrimidin-5-yl]-3-pyridylsulfonyl}-4-ethylpiperazine]
cGMP PDE5 inhibitor potency and selectivity (cGMP PDE5): potent and selective
